Reference: patent publication US20250230193A1, “CYCLIC COMPOUND HAVING SELECTIVE KRAS INHIBITORY EFFECT ON HRAS AND NRAS” (CHUGAI SEIYAKU KABUSHIKI KAISHA, priority 2022, published 2025)

Tests used:
[1] = target: GDP-bound HRAS wild-type protein (Homo sapiens, UniProt P01112); experiment: Binding to HRAS by surface plasmon resonance (SPR), Single Cycle Kinetics; conditions: SPR; for HRAS/KRAS (ratio of KD value with respect to HRAS to KD value with respect to KRAS): GDP-bound HRAS wild-type vs GDP-bound KRAS wild-type; for HRAS/KRAS (ratio of KD value for GDP-bound HRAS wild-type protein to KD value for KRAS): KD ratio class
Sequence of GDP-bound HRAS wild-type protein (P01112 whole entry): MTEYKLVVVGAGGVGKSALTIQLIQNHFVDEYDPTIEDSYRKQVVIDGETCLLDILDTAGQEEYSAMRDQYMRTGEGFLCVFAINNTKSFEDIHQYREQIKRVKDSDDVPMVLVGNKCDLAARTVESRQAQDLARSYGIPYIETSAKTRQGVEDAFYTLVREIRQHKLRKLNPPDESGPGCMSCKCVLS

[2] = target: GDP-bound NRAS wild-type protein (Homo sapiens, UniProt P01111); experiment: Binding to NRAS by surface plasmon resonance (SPR), Single Cycle Kinetics; conditions: SPR; for NRAS/KRAS (ratio of KD value with respect to NRAS to KD value with respect to KRAS): GDP-bound NRAS wild-type vs GDP-bound KRAS wild-type; for NRAS/KRAS (ratio of KD value for GDP-bound NRAS wild-type protein to KD value for KRAS): KD ratio class
Sequence of GDP-bound NRAS wild-type protein (P01111 whole entry): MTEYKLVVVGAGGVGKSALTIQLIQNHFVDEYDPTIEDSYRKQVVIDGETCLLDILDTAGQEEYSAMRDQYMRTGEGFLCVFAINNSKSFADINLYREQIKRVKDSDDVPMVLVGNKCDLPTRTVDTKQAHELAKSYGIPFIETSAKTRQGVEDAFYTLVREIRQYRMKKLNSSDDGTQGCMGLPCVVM

| SMILES | HRAS/KRAS (ratio of KD value with respect to HRAS to KD value with respect to KRAS) [1] | NRAS/KRAS (ratio of KD value with respect to NRAS to KD value with respect to KRAS) [2] | HRAS/KRAS (ratio of KD value for GDP-bound HRAS wild-type protein to KD value for KRAS) [1] | NRAS/KRAS (ratio of KD value for GDP-bound NRAS wild-type protein to KD value for KRAS) [2] |
| --- | --- | --- | --- | --- |
| CCO[C@@H]1C[C@H]2C(=O)NC3(CCC3)C(=O)N(C)[C@@H](C3CCCC3)C(=O)N(C)[C@H](C(=O)N(C)C)CC(=O)N(C)[C@@H](Cc3cccnc3)C(=O)N[C@@H]([C@@H](C)CC)C(=O)N(C)CC(=O)N(C)[C@H]3CCCCCN(C3=O)[C@@H](Cc3ccc(F)cc3)C(=O)N(C)CC(=O)N[C@@H](CCc3cc(F)c(C(F)(F)F)c(F)c3)C(=O)N2C1 [PP1196] | B (a compound having 3 or more and less than 10 is denoted as B) | B (a compound having 3 or more and less than 10 is denoted as B) | – | – |
| CCO[C@@H]1C[C@H]2C(=O)NC3(CCC3)C(=O)N(C)[C@@H](C3CCCC3)C(=O)N(C)[C@H](C(=O)N(C)C)CC(=O)N(C)[C@@H](Cc3cccs3)C(=O)N[C@@H]([C@@H](C)CC)C(=O)N(C)CC(=O)N(C)[C@H]3CCCCCN(C3=O)[C@@H](Cc3ccc(F)cc3)C(=O)N(C)CC(=O)N[C@@H](CCc3cc(F)c(C(F)(F)F)c(F)c3)C(=O)N2C1 [PP1197] | B (a compound having 3 or more and less than 10 is denoted as B) | B (a compound having 3 or more and less than 10 is denoted as B) | – | – |
| CCO[C@@H]1C[C@H]2C(=O)NC3(CCC3)C(=O)N(C)[C@@H](C(CC)CC)C(=O)N(C)[C@H](C(=O)N(C)C)CC(=O)N(C)[C@@H](C)C(=O)N[C@@H]([C@@H](C)CC)C(=O)N(C)CC(=O)N(C)[C@H]3C/C=C\CCN(C3=O)[C@@H](Cc3ccc(C(F)(F)F)cc3)C(=O)N(C)CC(=O)N[C@@H](CCc3cc(F)c(C(F)(F)F)c(F)c3)C(=O)N2C1 [PP1199] | A (a compound having 10 or more and less than 20 is denoted as A) | A (a compound having 10 or more and less than 20 is denoted as A) | – | – |
| CCO[C@@H]1C[C@H]2C(=O)NC3(CCC3)C(=O)N(C)[C@@H](C(CC)CC)C(=O)N(C)[C@H](C(=O)N(C)C)CC(=O)N(C)[C@@H](CC)C(=O)N[C@@H]([C@@H](C)CC)C(=O)N(C)CC(=O)N(C)[C@H]3C/C=C\CCN(C3=O)[C@@H](Cc3ccc(C(F)(F)F)cc3)C(=O)N(C)CC(=O)N[C@@H](CCc3cc(F)c(C(F)(F)F)c(F)c3)C(=O)N2C1 [PP1200] | A (a compound having 10 or more and less than 20 is denoted as A) | AA (a compound having 20 or more is denoted as AA) | – | – |
| CCO[C@@H]1C[C@H]2C(=O)NC3(CCC3)C(=O)N(C)[C@@H](C(CC)CC)C(=O)N(C)[C@H](C(=O)N(C)C)CC(=O)N(C)[C@@H](CC(C)C)C(=O)N[C@@H]([C@@H](C)CC)C(=O)N(C)CC(=O)N(C)[C@H]3C/C=C\CCN(C3=O)[C@@H](Cc3ccc(C(F)(F)F)cc3)C(=O)N(C)CC(=O)N[C@@H](CCc3cc(F)c(C(F)(F)F)c(F)c3)C(=O)N2C1 [PP1201] | A (a compound having 10 or more and less than 20 is denoted as A) | AA (a compound having 20 or more is denoted as AA) | – | – |
| CCO[C@@H]1C[C@H]2C(=O)NC3(CCC3)C(=O)N(C)[C@@H](C3CCCC3)C(=O)N(C)[C@H](C(=O)N(C)CC)CC(=O)N(C)[C@@H](CC(C)C)C(=O)N[C@@H]([C@@H](C)CC)C(=O)N(C)CC(=O)N(C)[C@H]3C/C=C\CCN(C3=O)[C@@H](Cc3ccc(C(F)(F)F)cc3)C(=O)N(C)CC(=O)N[C@@H](CCc3cc(F)c(C(F)(F)F)c(F)c3)C(=O)N2C1 [PP1300] | – | – | A (a compound having 10 or more and less than 20 is denoted as A) | A (a compound having 10 or more and less than 20 is denoted as A) |
| CCO[C@@H]1C[C@H]2C(=O)NC3(CCC3)C(=O)N(C)[C@@H](C3CCCC3)C(=O)N(C)[C@H](C(=O)N(C)CC)CC(=O)N(C)[C@@H](CC3CC3)C(=O)N[C@@H]([C@@H](C)CC)C(=O)N(C)CC(=O)N(C)[C@H]3C/C=C\CCN(C3=O)[C@@H](Cc3ccc(C(F)(F)F)cc3)C(=O)N(C)CC(=O)N[C@@H](CCc3cc(F)c(C(F)(F)F)c(F)c3)C(=O)N2C1 [PP1301] | – | – | A (a compound having 10 or more and less than 20 is denoted as A) | A (a compound having 10 or more and less than 20 is denoted as A) |
| CCO[C@@H]1C[C@H]2C(=O)NC3(CCC3)C(=O)N(C)[C@@H](C3CCCC3)C(=O)N(C)[C@H](C(=O)N(C)CC)CC(=O)N(C)[C@@H](C)C(=O)N[C@@H]([C@@H](C)CC)C(=O)N(C)CC(=O)N(C)[C@H]3C/C=C\CCN(C3=O)[C@@H](Cc3ccc(C(F)(F)F)cc3)C(=O)N(C)CC(=O)N[C@@H](CCc3cc(F)c(C(F)(F)F)c(F)c3)C(=O)N2C1 [PP1302] | – | – | A (a compound having 10 or more and less than 20 is denoted as A) | A (a compound having 10 or more and less than 20 is denoted as A) |
| CCO[C@@H]1C[C@H]2C(=O)NC3(CCC3)C(=O)N(C)[C@@H](C3CCCC3)C(=O)N(C)[C@H](C(=O)N(C)CC)CC(=O)N(C)[C@@H](CC(F)F)C(=O)N[C@@H]([C@@H](C)CC)C(=O)N(C)CC(=O)N(C)[C@H]3C/C=C\CCN(C3=O)[C@@H](Cc3ccc(C(F)(F)F)cc3)C(=O)N(C)CC(=O)N[C@@H](CCc3cc(F)c(C(F)(F)F)c(F)c3)C(=O)N2C1 [PP1303] | – | – | A (a compound having 10 or more and less than 20 is denoted as A) | AA (a compound having 20 or more is denoted as AA) |
| CCC[C@H]1C(=O)N[C@@H]([C@@H](C)CC)C(=O)N(C)CC(=O)N(C)[C@H]2C/C=C\CCN(C2=O)[C@@H](Cc2ccc(C(F)(F)F)cc2)C(=O)N(C)CC(=O)N[C@@H](CCc2cc(F)c(C(F)(F)F)c(F)c2)C(=O)N2C[C@H](OCC)C[C@H]2C(=O)NC2(CCC2)C(=O)N(C)[C@@H](C2CCCC2)C(=O)N(C)[C@H](C(=O)N(C)CC)CC(=O)N1C [PP1304] | – | – | A (a compound having 10 or more and less than 20 is denoted as A) | A (a compound having 10 or more and less than 20 is denoted as A) |
| CCO[C@@H]1C[C@H]2C(=O)NC3(CCC3)C(=O)N(C)[C@@H](C3CCCC3)C(=O)N(C)[C@H](C(=O)N(CC)CC)CC(=O)N(C)[C@@H](CC)C(=O)N[C@@H]([C@@H](C)CC)C(=O)N(C)CC(=O)N(C)[C@H]3C/C=C\CCN(C3=O)[C@@H](Cc3ccc(C(F)(F)F)cc3)C(=O)N(C)CC(=O)N[C@@H](CCc3cc(F)c(C(F)(F)F)c(F)c3)C(=O)N2C1 [PP1305] | – | – | A (a compound having 10 or more and less than 20 is denoted as A) | AA (a compound having 20 or more is denoted as AA) |
| CCO[C@@H]1C[C@H]2C(=O)NC3(CCC3)C(=O)N(C)[C@@H](C3CCCC3)C(=O)N(C)[C@H](C(=O)N(CC)CC)CC(=O)N(C)[C@@H](CC(C)C)C(=O)N[C@@H]([C@@H](C)CC)C(=O)N(C)CC(=O)N(C)[C@H]3C/C=C\CCN(C3=O)[C@@H](Cc3ccc(C(F)(F)F)cc3)C(=O)N(C)CC(=O)N[C@@H](CCc3cc(F)c(C(F)(F)F)c(F)c3)C(=O)N2C1 [PP1306] | – | – | A (a compound having 10 or more and less than 20 is denoted as A) | AA (a compound having 20 or more is denoted as AA) |
| CCO[C@@H]1C[C@H]2C(=O)NC3(CCC3)C(=O)N(C)[C@@H](C3CCCC3)C(=O)N(C)[C@H](C(=O)N(CC)CC)CC(=O)N(C)[C@@H](C)C(=O)N[C@@H]([C@@H](C)CC)C(=O)N(C)CC(=O)N(C)[C@H]3C/C=C\CCN(C3=O)[C@@H](Cc3ccc(C(F)(F)F)cc3)C(=O)N(C)CC(=O)N[C@@H](CCc3cc(F)c(C(F)(F)F)c(F)c3)C(=O)N2C1 [PP1308] | – | – | A (a compound having 10 or more and less than 20 is denoted as A) | A (a compound having 10 or more and less than 20 is denoted as A) |
| CCO[C@@H]1C[C@H]2C(=O)NC3(CCC3)C(=O)N(C)[C@@H](C3CCCC3)C(=O)N(C)[C@H](C(=O)N(CC)CC)CC(=O)N(C)[C@@H](CC(F)F)C(=O)N[C@@H]([C@@H](C)CC)C(=O)N(C)CC(=O)N(C)[C@H]3C/C=C\CCN(C3=O)[C@@H](Cc3ccc(C(F)(F)F)cc3)C(=O)N(C)CC(=O)N[C@@H](CCc3cc(F)c(C(F)(F)F)c(F)c3)C(=O)N2C1 [PP1309] | – | – | A (a compound having 10 or more and less than 20 is denoted as A) | A (a compound having 10 or more and less than 20 is denoted as A) |
| CCC[C@H]1C(=O)N[C@@H]([C@@H](C)CC)C(=O)N(C)CC(=O)N(C)[C@H]2C/C=C\CCN(C2=O)[C@@H](Cc2ccc(C(F)(F)F)cc2)C(=O)N(C)CC(=O)N[C@@H](CCc2cc(F)c(C(F)(F)F)c(F)c2)C(=O)N2C[C@H](OCC)C[C@H]2C(=O)NC2(CCC2)C(=O)N(C)[C@@H](C2CCCC2)C(=O)N(C)[C@H](C(=O)N(CC)CC)CC(=O)N1C [PP1310] | – | – | A (a compound having 10 or more and less than 20 is denoted as A) | AA (a compound having 20 or more is denoted as AA) |
| CCC[C@H]1C(=O)N[C@@H]([C@@H](C)CC)C(=O)N(C)CC(=O)N(C)[C@H]2C/C=C\CCN(C2=O)[C@@H](Cc2ccc(C(F)(F)F)cc2)C(=O)N(C)CC(=O)N[C@@H](CCc2cc(F)c(C(F)(F)F)c(F)c2)C(=O)N2C[C@H](OCC)C[C@H]2C(=O)NC2(CCC2)C(=O)N(C)[C@@H](C2CCCC2)C(=O)N(C)[C@H](C(=O)N2CC3CCC(C2)O3)CC(=O)N1C [PP1315] | – | – | A (a compound having 10 or more and less than 20 is denoted as A) | AA (a compound having 20 or more is denoted as AA) |
